Two molecules from article PMC3197762 (Nature chemical biology, 2011) can be followed below.

The test system of assay [1] is HTLA cells not expressing a Tango receptor. The assay is described as follows: Tango negative control, cells transfected with pEYFP-N1. The class given is cell-based, human.
In another assay the target is human V2 Tango receptor (Homo sapiens, UniProt P30518). The assay is described as follows: Tango control, human V2 Tango receptor. Type of assay: cell-based. The following applies: data not shown.

As for `CN(C)CCCN1c2ccccc2Sc2ccc(Cl)cc21` [Chlorpromazine], the “activity on HTLA cells not expressing a Tango receptor” value in assay [1] is “inactive”. Moreover, the “effect on HTLA cells expressing the human V2 Tango receptor” value on human V2 Tango receptor is reported as “no effect”.
The like results for `CCCN1CCC[C@@H]2Cc3n[nH]cc3C[C@H]21` [Quinpirole] were, in that order, “inactive” and “no effect”.
